What all share (type): cell-based
For experiment [1], the system named is OVCAR-8 ovarian carcinoma cells. In words: Growth inhibition of OVCAR-8 cells. Conditions: Homo sapiens, OVCAR-8, 96 h, read-out: IC50 ± SD OVCAR-8.
Experiment [2] relates to RD rhabdomyosarcoma cells. Nature of the experiment: Growth inhibition, MTT, RD. Conditions: Rhabdomyosarcoma cell, 48 h, read-out: IC50 ± SD RD.
The test system of experiment [3] is HepG2 hepatocellular carcinoma cells. In words: Growth inhibition, MTT, HepG2. To be noted: Homo sapiens, HepG2, 48 h, read-out: IC50 ± SD HepG2.
In another experiment the test system is HeLa cells. In words: NKG2D and DNAM-1 ligand surface expression, IF and flow cytometry. To be noted: data not shown.

Broadly, the IC50 is the midpoint of a concentration-inhibition curve.

Regarding `CC[C@]1(O)C[C@@H]2CN(CCc3c([nH]c4ccccc34)[C@@](C(=O)OC)(c3cc4c(cc3OC)N(C)[C@H]3[C@@](O)(C(=O)OC)[C@H](OC(C)=O)[C@]5(CC)C=CCN6CC[C@]43[C@@H]65)C2)C1` [VBL, vinblastine], the values for the half-inhibitory concentration (IC50) in experiment [1], in experiment [2] and in experiment [3] were 15 ± 7 nM, 53 ± 2.5 nM and 81 ± 2.4 nM, respectively.

Turning to `CC(=O)O[C@H]1C(=O)[C@@]2(C)[C@H]([C@H](OC(=O)c3ccccc3)[C@]3(O)C[C@H](OC(=O)[C@H](O)[C@@H](NC(=O)c4ccccc4)c4ccccc4)C(C)=C1C3(C)C)[C@]1(OC(C)=O)CO[C@@H]1C[C@@H]2O` [PTX, Paclitaxel], in experiment [2], the IC50 was above 10000 nM.

In the case of `COc1cc(C(=O)c2ccn(-c3cccc(N)c3)c2)cc(OC)c1OC` [(1-(3-aminophenyl)-1H-pyrrol-3-yl)(3,4,5-trimethoxyphenyl)-methanone], the “induction of the NKG2D and DNAM-1 ligands” value in the experiment on HeLa cells is “unable to induce”.

Source of the values: paper PMC4552448 (Journal of medicinal chemistry, 2015).
